From ChEMBL document CHEMBL4229379, “Synthesis and structure-activity relationship of novel bisindole amidines active against MDR Gram-positive and Gram-negative bacteria” (Eur J Med Chem, 2018)

Experiments:
[1] = system: Staphylococcus epidermidis; assay: Antibacterial activity against methicillin-sensitive Staphylococcus epidermidis ATCC 12228 after 18 hrs by CLSI broth microdilution method; assay type: functional; conditions: ATCC 12228, 18 h
[2] = system: Staphylococcus epidermidis; assay: Antibacterial activity against methicillin-resistant Staphylococcus epidermidis 12-8 after 18 hrs by CLSI broth microdilution method; assay type: functional; conditions: 12-8, 18 h
Staphylococcus aureus [3] = assay: Antibacterial activity against methicillin-sensitive Staphylococcus aureus ATCC 29213 after 18 hrs by CLSI broth microdilution method; assay type: functional; conditions: ATCC 29213, 18 h
Staphylococcus aureus [4] = assay: Antibacterial activity against methicillin-resistant Staphylococcus aureus 12-33 after 18 hrs by CLSI broth microdilution method; assay type: functional; conditions: 12-33, 18 h
Enterococcus faecalis [5] = assay: Antibacterial activity against vancomycin-sensitive Enterococcus faecalis ATCC 29212 after 18 hrs by CLSI broth microdilution method; assay type: functional; conditions: ATCC 29212, 18 h
Enterococcus faecalis [6] = assay: Antibacterial activity against vancomycin-resistant Enterococcus faecalis 09-9 after 18 hrs by CLSI broth microdilution method; assay type: functional; conditions: 09-9, 18 h
Enterococcus faecium [7] = assay: Antibacterial activity against vancomycin-resistant Enterococcus faecium ATCC 700221 after 18 hrs by CLSI broth microdilution method; assay type: functional; conditions: ATCC 700221, 18 h
Enterococcus faecium [8] = assay: Antibacterial activity against vancomycin-sensitive Enterococcus faecium 12-3 after 18 hrs by CLSI broth microdilution method; assay type: functional; conditions: 12-3, 18 h
Escherichia coli [9] = assay: Antibacterial activity against extended-spectrum beta-lactamase deficient Escherichia coli ATCC 25922 after 18 hrs by CLSI broth microdilution method; assay type: functional; conditions: ATCC 25922, 18 h
Escherichia coli [10] = assay: Antibacterial activity against extended-spectrum beta-lactamase harboring Escherichia coli 12-15 after 18 hrs by CLSI broth microdilution method; assay type: functional; conditions: 12-15, 18 h
Klebsiella pneumoniae [11] = assay: Antibacterial activity against extended-spectrum beta-lactamase harboring Klebsiella pneumoniae ATCC 700603 after 18 hrs by CLSI broth microdilution method; assay type: functional; conditions: Klebsiella pneumoniae, 700603, 18 h
Klebsiella pneumoniae [12] = assay: Antibacterial activity against new delhi metallo-beta-lactamase-1 harboring Klebsiella pneumoniae ATCC BAA-2146 after 18 hrs by CLSI broth microdilution method; assay type: functional; conditions: ATCC BAA-2146, 18 h
Klebsiella pneumoniae [13] = assay: Antibacterial activity against extended-spectrum beta-lactamase harboring Klebsiella pneumoniae 12-8 after 18 hrs by CLSI broth microdilution method; assay type: functional; conditions: 12-8, 18 h
Pseudomonas aeruginosa [14] = assay: Antibacterial activity against Pseudomonas aeruginosa ATCC 27853 after 18 hrs by CLSI broth microdilution method; assay type: functional; conditions: ATCC 27853, 18 h
[15] = system: Acinetobacter calcoaceticus; assay: Antibacterial activity against Acinetobacter calcoaceticus ATCC 19606 after 18 hrs by CLSI broth microdilution method; assay type: functional; conditions: ATCC 19606, 18 h
Enterobacter cloacae = assay: Antibacterial activity against Enterobacter cloacae ATCC 43560 after 18 hrs by CLSI broth microdilution method; assay type: functional; conditions: ATCC 43560, 18 h
Proteus mirabilis = assay: Antibacterial activity against Proteus mirabilis 12-6 after 18 hrs by CLSI broth microdilution method; assay type: functional; conditions: 12-6, 18 h
[16] = Cytotoxicity against HEK293T cells assessed as reduction in cell viability after 48 hrs by MTS assay; assay type: cell-based, HEK-293T; conditions: human
[17] = system: Staphylococcus epidermidis; assay: Antibacterial activity against methicillin-sensitive Staphylococcus epidermidis 12-6 after 18 hrs by CLSI broth microdilution method; assay type: functional; conditions: 12-6, 18 h
Staphylococcus aureus [18] = assay: Antibacterial activity against methicillin-resistant Staphylococcus aureus ATCC 33591 after 18 hrs by CLSI broth microdilution method; assay type: functional; conditions: ATCC 33591, 18 h
Staphylococcus aureus [19] = assay: Antibacterial activity against methicillin-sensitive Staphylococcus aureus 15 after 18 hrs by CLSI broth microdilution method; assay type: functional; conditions: Staphylococcus aureus, 15, 18 h
Staphylococcus aureus [20] = assay: Antibacterial activity against methicillin-sensitive Staphylococcus aureus 12-28 after 18 hrs by CLSI broth microdilution method; assay type: functional; conditions: 12-28, 18 h
Enterococcus faecalis [21] = assay: Antibacterial activity against vancomycin-resistant Enterococcus faecalis ATCC 51299 after 18 hrs by CLSI broth microdilution method; assay type: functional; conditions: ATCC 51299, 18 h
Enterococcus faecalis [22] = assay: Antibacterial activity against vancomycin-sensitive Enterococcus faecalis 12-5 after 18 hrs by CLSI broth microdilution method; assay type: functional; conditions: 12-5, 18 h
Enterococcus faecium [23] = assay: Antibacterial activity against vancomycin-resistant Enterococcus faecium 12-1 after 18 hrs by CLSI broth microdilution method; assay type: functional; conditions: 12-1, 18 h
Escherichia coli [24] = assay: Antibacterial activity against extended-spectrum beta-lactamase deficient Escherichia coli 1515 after 18 hrs by CLSI broth microdilution method; assay type: functional; conditions: Escherichia coli, 1515, 18 h
Escherichia coli [25] = assay: Antibacterial activity against extended-spectrum beta-lactamase deficient Escherichia coli 12-14 after 18 hrs by CLSI broth microdilution method; assay type: functional; conditions: 12-14, 18 h
Klebsiella pneumoniae [26] = assay: Antibacterial activity against extended-spectrum beta-lactamase deficient Klebsiella pneumoniae 7 after 18 hrs by CLSI broth microdilution method; assay type: functional; conditions: Klebsiella pneumoniae, 7, 18 h
Klebsiella pneumoniae [27] = assay: Antibacterial activity against extended-spectrum beta-lactamase deficient Klebsiella pneumoniae 12-4 after 18 hrs by CLSI broth microdilution method; assay type: functional; conditions: 12-4, 18 h
Pseudomonas aeruginosa [28] = assay: Antibacterial activity against Pseudomonas aeruginosa PAO1 after 18 hrs by CLSI broth microdilution method; assay type: functional; conditions: PAO1, 18 h
Pseudomonas aeruginosa [29] = assay: Antibacterial activity against Pseudomonas aeruginosa 12-16 after 18 hrs by CLSI broth microdilution method; assay type: functional; conditions: 12-16, 18 h
Klebsiella aerogenes = assay: Antibacterial activity against Enterobacter aerogenes ATCC 13048 after 18 hrs by CLSI broth microdilution method; assay type: functional; conditions: ATCC 13048, 18 h
Serratia marcescens = assay: Antibacterial activity against Serratia marcescens ATCC 21074 after 18 hrs by CLSI broth microdilution method; assay type: functional; conditions: ATCC 21074, 18 h
Providencia rettgeri = assay: Antibacterial activity against Providencia rettgeri ATCC 31052 after 18 hrs by CLSI broth microdilution method; assay type: functional; conditions: ATCC 31052, 18 h
Proteus vulgaris = assay: Antibacterial activity against Proteus vulgaris ATCC 29905 after 18 hrs by CLSI broth microdilution method; assay type: functional; conditions: ATCC 29905, 18 h
[30] = system: Stenotrophomonas maltophilia; assay: Antibacterial activity against Stenotrophomonas maltophilia ATCC 13636 after 18 hrs by CLSI broth microdilution method; assay type: functional; conditions: ATCC 13636, 18 h
Citrobacter freundii = assay: Antibacterial activity against Citrobacter freundii ATCC 43864 after 18 hrs by CLSI broth microdilution method; assay type: functional; conditions: ATCC 43864, 18 h

CCN(C)C(=N)c1ccc2cc(-c3ccc(-c4cc5ccc(C(=N)N(C)CC)cc5[nH]4)cc3)[nH]c2c1
16 µg/mL: MIC (Serratia marcescens)
8 µg/mL: MIC (Klebsiella pneumoniae [11]) | MIC (Pseudomonas aeruginosa [14]) | MIC (Proteus mirabilis) | MIC [30]
0.25 µg/mL: MIC [1] | MIC [17]
1 µg/mL: MIC (Staphylococcus aureus [4]) | MIC (Enterococcus faecalis [5]) | MIC (Enterococcus faecium [7]) | MIC (Enterococcus faecium [8]) | MIC (Escherichia coli [9])
4 µg/mL: MIC (Klebsiella pneumoniae [12]) | MIC (Klebsiella pneumoniae [13]) | MIC [15] | MIC (Klebsiella pneumoniae [26]) | MIC (Klebsiella pneumoniae [27]) | MIC (Providencia rettgeri) | MIC (Proteus vulgaris)
0.5 µg/mL: MIC [2] | MIC (Staphylococcus aureus [3]) | MIC (Staphylococcus aureus [18]) | MIC (Staphylococcus aureus [19]) | MIC (Staphylococcus aureus [20]) | MIC (Enterococcus faecium [23])
128 µg/mL: MIC (Pseudomonas aeruginosa [28]) | MIC (Pseudomonas aeruginosa [29])
17 µg/mL: CC50 at 48 h [16]
2 µg/mL: MIC (Enterococcus faecalis [6]) | MIC (Escherichia coli [10]) | MIC (Enterobacter cloacae) | MIC (Enterococcus faecalis [21]) | MIC (Enterococcus faecalis [22]) | MIC (Escherichia coli [24]) | MIC (Escherichia coli [25]) | MIC (Klebsiella aerogenes) | MIC (Citrobacter freundii)

CN(C)C(=N)c1ccc2cc(-c3cncc(-c4cc5ccc(C(=N)N(C)C)cc5[nH]4)c3)[nH]c2c1
0.25 µg/mL: MIC [1] | MIC [17]
1 µg/mL: MIC (Escherichia coli [10]) | MIC (Enterococcus faecium [23]) | MIC (Escherichia coli [25])
8 µg/mL: MIC (Klebsiella pneumoniae [11]) | MIC [15] | MIC (Proteus mirabilis) | MIC (Klebsiella pneumoniae [27]) | MIC [30] | MIC (Citrobacter freundii)
16 µg/mL: MIC (Pseudomonas aeruginosa [14]) | MIC (Serratia marcescens)
4 µg/mL: MIC (Klebsiella pneumoniae [12]) | MIC (Klebsiella pneumoniae [13]) | MIC (Enterobacter cloacae) | MIC (Klebsiella pneumoniae [26]) | MIC (Klebsiella aerogenes) | MIC (Proteus vulgaris)
2 µg/mL: MIC (Enterococcus faecalis [5]) | MIC (Enterococcus faecalis [6]) | MIC (Enterococcus faecium [7]) | MIC (Enterococcus faecium [8]) | MIC (Escherichia coli [9]) | MIC (Enterococcus faecalis [21]) | MIC (Enterococcus faecalis [22]) | MIC (Escherichia coli [24]) | MIC (Providencia rettgeri)
> 64 µg/mL: MIC (Pseudomonas aeruginosa [28]) | MIC (Pseudomonas aeruginosa [29])
0.5 µg/mL: MIC [2] | MIC (Staphylococcus aureus [3]) | MIC (Staphylococcus aureus [4]) | MIC (Staphylococcus aureus [18]) | MIC (Staphylococcus aureus [19]) | MIC (Staphylococcus aureus [20])
1.75 µg/mL: CC50 at 48 h [16]

CN(C)C(=N)c1ccc2cc(-c3cnc(-c4cc5ccc(C(=N)N(C)C)cc5[nH]4)s3)[nH]c2c1
8 µg/mL: MIC (Klebsiella pneumoniae [11]) | MIC (Proteus mirabilis) | MIC (Serratia marcescens)
4 µg/mL: MIC (Klebsiella pneumoniae [12]) | MIC (Klebsiella pneumoniae [13]) | MIC (Klebsiella pneumoniae [26]) | MIC (Klebsiella pneumoniae [27]) | MIC (Klebsiella aerogenes) | MIC (Proteus vulgaris) | MIC (Citrobacter freundii)
2.01 µg/mL: CC50 at 48 h [16]
2 µg/mL: MIC (Enterococcus faecium [8]) | MIC (Escherichia coli [9]) | MIC (Escherichia coli [10]) | MIC (Enterobacter cloacae) | MIC (Enterococcus faecalis [22]) | MIC (Escherichia coli [24]) | MIC (Escherichia coli [25]) | MIC (Providencia rettgeri)
0.125 µg/mL: MIC [17]
16 µg/mL: MIC (Pseudomonas aeruginosa [14]) | MIC [15] | MIC [30]
1 µg/mL: MIC (Staphylococcus aureus [4]) | MIC (Enterococcus faecalis [5]) | MIC (Enterococcus faecium [7]) | MIC (Enterococcus faecalis [21]) | MIC (Enterococcus faecium [23])
0.25 µg/mL: MIC [2] | MIC (Staphylococcus aureus [3]) | MIC (Staphylococcus aureus [18]) | MIC (Staphylococcus aureus [19])
0.12 µg/mL: MIC [1]
> 64 µg/mL: MIC (Pseudomonas aeruginosa [28]) | MIC (Pseudomonas aeruginosa [29])
0.5 µg/mL: MIC (Enterococcus faecalis [6]) | MIC (Staphylococcus aureus [20])

COCCNC(=N)c1ccc2cc(-c3cncc(-c4cc5ccc(C(=N)NCCOC)cc5[nH]4)c3)[nH]c2c1
64 µg/mL: MIC [1] | MIC [17]
> 64 µg/mL: MIC [2] | MIC (Staphylococcus aureus [3]) | MIC (Staphylococcus aureus [4]) | MIC (Enterococcus faecalis [5]) | MIC (Enterococcus faecalis [6]) | MIC (Enterococcus faecium [7]) | MIC (Enterococcus faecium [8]) | MIC (Escherichia coli [9]) | MIC (Escherichia coli [10]) | MIC (Klebsiella pneumoniae [11]) | MIC (Klebsiella pneumoniae [12]) | MIC (Klebsiella pneumoniae [13]) | MIC (Pseudomonas aeruginosa [14]) | MIC [15] | MIC (Enterobacter cloacae) | MIC (Proteus mirabilis) | MIC (Staphylococcus aureus [18]) | MIC (Staphylococcus aureus [19]) | MIC (Staphylococcus aureus [20]) | MIC (Enterococcus faecalis [21]) | MIC (Enterococcus faecalis [22]) | MIC (Enterococcus faecium [23]) | MIC (Escherichia coli [24]) | MIC (Escherichia coli [25]) | MIC (Klebsiella pneumoniae [26]) | MIC (Klebsiella pneumoniae [27]) | MIC (Pseudomonas aeruginosa [28]) | MIC (Pseudomonas aeruginosa [29]) | MIC (Klebsiella aerogenes) | MIC (Serratia marcescens) | MIC (Providencia rettgeri) | MIC (Proteus vulgaris) | MIC [30] | MIC (Citrobacter freundii)
28 µg/mL: CC50 at 48 h [16]
